Several values for one entry are separate records, joined by “and”; a condition that tells them apart may be missing. Equal values may be shown once. Entries after “also recorded” stand apart in the source; their conditions may differ. Read-outs that look alike come from different tables or passages of the source.
Columns and labels:
MIF = target: T1, MIF (Homo sapiens, UniProt P14174); assay: MIF dopachrome tautomerase assay; assay type: biochemical; details: for IC50: MIF tautomerase activity, L-dopachrome methyl ester substrate; for MIF antagonist activity: D amino acid compounds compared with compounds 8-10
T1 sequence (P14174 2-115 limits assumed): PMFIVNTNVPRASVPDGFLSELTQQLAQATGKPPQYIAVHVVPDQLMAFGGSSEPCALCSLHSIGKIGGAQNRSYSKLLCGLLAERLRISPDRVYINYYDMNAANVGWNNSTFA

[1] = test system: quiescent NIH/3T3 fibroblasts; assay: Inhibition of MIF-dependent serum-induced proliferation of quiescent NIH/3T3 fibroblasts; assay type: cell-based; details: for MIF inhibitory activity (inhibition of MIF induced proliferation in quiescent NIH/3T3 cell cultures): NIH/3T3 cell proliferation assay
[2] = test system: primary murine embryonic fibroblasts; assay: Neutralization of rMIF rescue from serum-withdrawal apoptosis; assay type: cell-based; details: serum-free + rMIF 50 ng/ml; for neutralizing MIF-mediated protection from apoptosis (persistence of apoptosis despite rMIF): FIG. 2, test compound 1 or 10 μM, compared with anti-MIF mAb
Source text: FIG. 2 compares the activity of MIF antagonist agents of the present invention (and more particularly compounds according to Formula I) to neutralize the MIF-mediated protection from apoptosis induced in cultured murine embryonic fibroblasts, which apoptotic response (cell death) is initiated by withdrawal of serum. In this assay, withdrawal of serum initiates an apoptotic response, but the cells can be rescued by addition of recombinant MIF (rMIF) to the culture medium. […] This antagonistic effect on MIF bioactivity in vitro is predictive of clinical utility of the active MIF antagonist agent.
In the illustrative experiments, cultured embryonic fibroblasts are induced to enter apoptosis (cell death) as a result of serum withdrawal. These cultures can be “rescued” by treatment with MIF. Thus, test compounds are conveniently assayed for MIF antagonist activity by reference to the activity of the compounds to neutralize the effect of added MIF in the apoptosis assay; that is, by the persistence of apoptosis (cell death) in serum-free culture conditions despite the addition of MIF. In this regard, anti-MIF antibodies are known to antagonize MIF and serve as a convenient positive control.
Briefly, primary murine embryonic fibroblasts are distributed into 6-well cell culture plates at 2×10^5 cells/well. Cells are subsequently cultured overnight under standard conditions in 10% serum-containing medium (+serum) or in serum-free medium (+serum-free) in the absence or presence of recombinant human MIF (rMIF) at 50 ng/ml. […] Cell lysates are analyzed for apoptosis by any of a variety of convenient methods, such as ELISA for fragmented DNA. Results shown are the mean+/−SD of duplicate samples and are representative of replicated experiments.

## COC(=O)CN=Cc1ccc(O)cc1 [compound 1]
MIF; read-out: Inhibition (IC50)
  IC50: > 100 µM

## COC(=O)[C@H](Cc1ccccc1)N=Cc1ccc(O)cc1 [compound 8, L-PheME/parahydroxybenzaldehyde Schiff base]
[1]
  MIF inhibitory activity (inhibition of MIF induced proliferation in quiescent NIH/3T3 cell cultures): Neither compound 8 (corresponding to L-PheME/parahydroxybenzaldehyde Schiff base) nor compound 10b (corresponding to D-TrpME/parahydroxybenzaldehyde Schiff base) exhibited anti-MIF biological activity
MIF; read-out: Inhibition (IC50)
  IC50: ~50 µM and 50 µM

## COC(=O)[C@@H](Cc1ccccc1)N=Cc1ccc(O)cc1 [compound 8b]
MIF
  MIF antagonist activity: significantly less MIF antagonist activity

## COC(=O)[C@H](Cc1ccc(O)cc1)N=Cc1ccc(O)cc1 [compound 9, L-TyrME/parahydroxybenzaldehyde Schiff base]
[1]
  MIF inhibitory activity (inhibition of MIF induced proliferation in quiescent NIH/3T3 cell cultures): exhibited MIF inhibitory activity
MIF; read-out: Inhibition (IC50)
  IC50: ~10 µM and 10 µM

## COC(=O)[C@H](Cc1c[nH]c2ccccc12)N=Cc1ccc(O)cc1 [compound 10]
[1]; FIG. 1, 10 μM, 10% serum, [3H]-thymidine incorporation, compared with anti-MIF mAb 100 μg/ml
  suppression of serum-induced cell proliferation: as effective an MIF antagonist as a neutralizing anti-MIF monoclonal antibody
[1]
  MIF inhibitory activity (inhibition of MIF induced proliferation in quiescent NIH/3T3 cell cultures): exhibited MIF inhibitory activity
[2]; 10 μM
  antagonism of the bioactivity of MIF in apoptosis assay: significantly antagonizes the bioactivity of MIF
[2]
  neutralizing MIF-mediated protection from apoptosis (persistence of apoptosis despite rMIF): as effective an MIF antagonist agent as is a neutralizing anti-MIF monoclonal antibody; also recorded: as effective as a monoclonal anit-MIF antibody treatment at neutralizing rMIF; also recorded: dose-related effect

## COC(=O)[C@@H](Cc1c[nH]c2ccccc12)N=Cc1ccc(O)cc1 [compound 10b, D-tryptophan/para-hydroxybenzaldehyde Schiff base]
[2]
  neutralizing MIF-mediated protection from apoptosis (persistence of apoptosis despite rMIF): but not compound 10b (D-tryptophan/para-hydroxybenzaldehyde Schiff base), was as effective as a monoclonal anit-MIF antibody treatment at neutralizing rMIF
MIF
  MIF antagonist activity: significantly less MIF antagonist activity

## COC(=O)C(Cc1ccc(O)cc1)N=Cc1ccccc1O (centres unmarked) [compound 18]
MIF; read-out: Inhibition IC50
  IC50: > 100 µM

## COC(=O)C(Cc1ccc(O)cc1)N=Cc1cccc(O)c1O (centres unmarked) [compound 20]
MIF; read-out: Inhibition IC50
  IC50: > 100 µM

## COC(=O)C(Cc1ccc(O)cc1)N=Cc1ccc(O)c(O)c1 (centres unmarked) [compound 21]
MIF; read-out: Inhibition IC50
  IC50: > 100 µM

## COC(=O)[C@H](Cc1ccc(O)cc1)N=Cc1ccc(F)cc1 [compound 24]
MIF; read-out: Inhibition IC50
  IC50: > 100 µM

## COC(=O)[C@H](Cc1c[nH]c2ccccc12)N=Cc1ccc(F)cc1 [compound 29]
MIF; read-out: Inhibition IC50
  IC50: > 100 µM
